Laboratory results: patent publication US6569895B1, “Compounds and methods for the treatment of cardiovascular, inflammatory and immune disorders” (Millennium Pharmaceuticals, Inc., priority 1995, dated 2003)
Several values for one entry are separate records, joined by “and”; a condition that tells them apart may be missing. Equal entries are not always repeated.

Assays:
[1] = system: Leukotriene B4 production in ionophore-stimulated human whole blood; assay: Inhibition of leukotriene B4 production in ionophore-stimulated human whole blood; assay type: cell-based; settings: A23187 stimulated, LTB4 by EIA, read-out: HWB IC50
Method: Another biological assay used to evaluate the ability of a compound to inhibit the enzyme 5-lipoxygenase is based on the classic pharmacological model of inflammation induced by inhibition of LTB, from ionophore stimulated human whole blood.
Human blood was drawn into heparinized blood collection tubes, and aliquoted in 1 ml portions into 1.5 ml microfuge tubes. Test compound ([…]) of varying concentrations, dissolved in DMSO, was added to the blood sample and incubated for 15 minutes at 37° C. Calcium ionophore ([…], A23187) in DMSO was added to a final concentration of […], and the samples were incubated for 30 minutes at 37° C. Samples are then centrifuged at 1100×g (2500 rpm, H1000B rotor, in a Sorvall centrifuge) for 10 minutes at 4° C. Supernatant ([…]) was transferred into a 1.5 ml microfuge tube, […] of cold methanol added, and proteins precipitated on ice for 30 minutes. The samples were centrifuged at 110×g for 10 minutes at 4° C., and the supernatant assayed for LTB4 using a commercially available EIA kit (Cayman Chemical) according to manufacturer's specifications.

[2] = system: 5-Lipoxygenase (LTB4 in whole blood); assay: Ex-vivo rat whole blood 5-lipoxygenase evaluation (LTB4); assay type: in vivo; settings: 2 mg/k po
Method: (§1) CD-1 female mice, weighing 18-25 grams, and CD female rats, weighing 150-230 grams, were obtained from Charles River Labs. Test compounds were dissolved in 0.5% DMSO in 0.9% NaCl, for administration in mice (0.5 mg/ml) and in an alcohol vehicle (2% benzyl alcohol, 1% ethanol, 40% PEG 300, 10% propylene glycol, 47% of 5% dextrose and 3.5% pluronic F-68 in DiH2O) for use in rats (5 mg/ml). […] Heparinized whole blood (0.3 ml) was added into 1.5 ml Eppendorf centrifuge tube containing […] of 2 mM calcium ionophore A23187 (the final concentration of A23187 was […]). The sample was incubated for 30 minutes in a water bath at 37° C., and then centrifuged for 2 minutes. The plasma was diluted (×120) and assayed for LTB4 using EIA.

5-lipoxygenase = target: T1, 5-lipoxygenase (Homo sapiens, UniProt P09917); settings: background statement; cited from earlier work
T1 sequence (P09917 1-674): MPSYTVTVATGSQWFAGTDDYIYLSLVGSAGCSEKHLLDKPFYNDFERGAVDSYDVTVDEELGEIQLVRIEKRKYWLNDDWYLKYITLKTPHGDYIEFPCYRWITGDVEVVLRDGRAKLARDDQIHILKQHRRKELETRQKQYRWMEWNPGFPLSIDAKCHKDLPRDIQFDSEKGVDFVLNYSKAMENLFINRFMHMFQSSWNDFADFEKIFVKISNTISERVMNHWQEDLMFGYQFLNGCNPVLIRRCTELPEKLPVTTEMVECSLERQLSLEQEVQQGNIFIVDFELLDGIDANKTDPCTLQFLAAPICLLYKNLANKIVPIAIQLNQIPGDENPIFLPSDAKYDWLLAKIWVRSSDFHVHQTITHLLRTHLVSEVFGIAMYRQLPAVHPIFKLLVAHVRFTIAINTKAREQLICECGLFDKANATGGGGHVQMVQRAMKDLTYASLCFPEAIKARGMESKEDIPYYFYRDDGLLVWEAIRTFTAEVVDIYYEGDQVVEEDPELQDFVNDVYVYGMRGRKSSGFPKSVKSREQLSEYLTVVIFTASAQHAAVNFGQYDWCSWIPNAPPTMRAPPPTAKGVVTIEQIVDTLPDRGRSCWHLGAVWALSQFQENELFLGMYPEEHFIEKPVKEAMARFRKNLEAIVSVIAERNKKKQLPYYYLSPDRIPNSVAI

PAF = PAF (Homo sapiens, UniProt P25105); settings: background statement; cited from earlier work
Sequence of PAF (P25105 whole entry): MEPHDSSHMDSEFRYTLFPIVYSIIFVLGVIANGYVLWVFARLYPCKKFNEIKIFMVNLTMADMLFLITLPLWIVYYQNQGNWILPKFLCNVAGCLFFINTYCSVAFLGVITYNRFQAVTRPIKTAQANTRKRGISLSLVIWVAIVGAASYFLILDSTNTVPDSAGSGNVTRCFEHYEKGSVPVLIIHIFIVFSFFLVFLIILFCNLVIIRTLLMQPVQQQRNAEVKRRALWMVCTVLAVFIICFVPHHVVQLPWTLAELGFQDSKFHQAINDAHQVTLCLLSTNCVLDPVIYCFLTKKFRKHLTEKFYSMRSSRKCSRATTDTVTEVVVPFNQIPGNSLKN

[3] = target: T2, Cytosol 5-Lipoxygenase of Rat Basophile Leukemia Cells (Rattus norvegicus, UniProt P12527); assay: Cytosol 5-lipoxygenase of rat basophilic leukemia cells (RBL-2H3 preparation); assay type: biochemical; settings: RBL-2H3 cytosol preparation, [14C]arachidonic acid
T2 construct: endogenous in cells; host or cells: RBL-2H3 cells (sonicate, 20,000 x g supernatant)
T2 sequence (P12527 1-673): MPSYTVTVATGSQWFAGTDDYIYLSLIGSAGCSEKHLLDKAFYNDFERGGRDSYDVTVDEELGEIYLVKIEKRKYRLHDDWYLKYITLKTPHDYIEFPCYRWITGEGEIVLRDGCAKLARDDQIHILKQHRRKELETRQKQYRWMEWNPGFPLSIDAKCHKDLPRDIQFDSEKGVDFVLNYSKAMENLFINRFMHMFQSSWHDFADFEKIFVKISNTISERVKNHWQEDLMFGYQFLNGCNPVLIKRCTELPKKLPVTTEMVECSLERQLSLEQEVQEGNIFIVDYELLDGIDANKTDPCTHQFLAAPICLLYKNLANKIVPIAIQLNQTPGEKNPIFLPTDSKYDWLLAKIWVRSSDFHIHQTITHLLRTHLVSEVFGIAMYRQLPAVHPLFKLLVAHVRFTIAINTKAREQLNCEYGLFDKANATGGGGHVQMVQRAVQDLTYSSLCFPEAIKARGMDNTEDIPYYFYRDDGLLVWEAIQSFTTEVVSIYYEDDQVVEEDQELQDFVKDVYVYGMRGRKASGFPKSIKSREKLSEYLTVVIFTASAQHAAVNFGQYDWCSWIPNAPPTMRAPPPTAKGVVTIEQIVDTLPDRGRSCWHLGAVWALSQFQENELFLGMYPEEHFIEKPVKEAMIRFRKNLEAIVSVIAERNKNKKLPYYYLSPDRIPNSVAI
Method: A wide variety of biological assays have also been used to evaluate the ability of a compound to inhibit the enzyme 5-lipoxygenase. For example, a cytosol 5-lipoxygenase of rat basophilic leukemia cells (RBL) has been widely utilized in studies on leukotriene biosynthesis. Compounds that inhibit 5-lipoxygenase decrease the levels of leukotrienes.
RBL-2H3 cells were grown to confluence in tissue culture flasks according to Carter et al. (J Pharm Exp Ther 256(3); 929-937, 1991). The cells were harvested and washed five times in calcium-and magnesium-free D-PBS. The cells were suspended at 2×10^7/M in 10 mM BES, 10 mM PIPES, pH 6.8, 1 mM EDTA and then sonicated. The sonicate was centrifuged at 20,000×g for 20 minutes at 4° C. The supernatant was then removed and stored in aliquots at −70° C.
The 5-LO activity in the RBL-2H3 preparation was determined as follows: 0.1 ml reactions consisting of 0.7 mM CaCl2, 100 mM NaCl, 1 mM EDTA, 10 mM BES, 10 MM PIPES, pH 7.4, varying concentrations of test compound dissolved in DMSO (7.5% DMSO final in assay), and an amount of the RBL-2H3 preparation that will convert 15% of the arachidonic acid substrate mixture to oxygenated products (determined experimentally for each RBL-2H3preparation), were incubated for 20 minutes at room temperature. The reaction was initiated by the addition of 5 μl of the arachidonic acid substrate mixture (0.944 nmol [^14C] arachidonic acid and 6.06 nmol arachidonic acid per assay in 0.028% NH4OH), and allowed to proceed for 5 minutes at 37° C. The reaction was terminated by the addition of 0.12 ml of a mixture of (i) 1.66 mg/ml triphenylphosphine in ethyl ether; (ii) methanol; and (iii) 0.2M citric acid (30:4:1); followed by centrifugation at 1000×g for 1 minute. […] The film was developed, scanned using a densitometer, and the peak areas of arachidonic acid and its product(s) are calculated. The percent inhibition was determined from the amount of [14C]-arachidonic acid converted into oxygenated products in samples containing test compound relative to that of control samples (no test compound).

[4] = system: 5-Lipoxygenase (LTB4 in whole blood); assay: Ex-vivo mouse whole blood 5-lipoxygenase evaluation (LTB4); assay type: in vivo; settings: 3 mg/k iv, 60 minutes
Method: as §1

Structure (SMILES): NC(=O)N(O)CCC#C[C@H]1CC[C@@H](COc2ccc(F)cc2)O1
- IC50 [1]: 430 nM
- ex vivo LTB4 % inh. ([2]; 60 minutes): 86%
- ex vivo LTB4 % inh. ([2]; 360 minutes): 63%

Structure (SMILES): COc1cc([C@H]2CC[C@H](c3cc(OC)c(OC)c(OC)c3)S2)cc(OC)c1OC (relative stereo) [L-653,150, trans-2,5-bis-(3,4,5-trimethoxyphenyl)tetrahydrothiophene]
- inhibition of 5-lipoxygenase (5-lipoxygenase): moderate inhibitor of 5-lipoxygenase
- PAF antagonist activity (PAF): potent PAF antagonist

Structure (SMILES): NC(=O)N(O)CCC#C[C@@H]1CC[C@@H](COc2ccc(F)cc2)O1
- IC50 [3]: 1380 nM and 1490 nM and 560 nM and 1600 nM and 720 nM
- ex vivo LTB4 % inh. [4]: 22%

Structure (SMILES): NC(=O)N(O)CCC#C[C@H]1CC[C@H](COc2ccc(F)cc2)O1
- IC50 [1]: 150 nM

Structure (SMILES): NC(=O)N(O)CCCC[C@@H]1CCC(COc2ccc(F)cc2)O1 (single isomer, unassigned)
- IC50 [3]: 950 nM

Structure (SMILES): NC(=O)N(O)CCCC[C@@H]1CC[C@@H](COc2ccc(F)cc2)O1
- IC50 [3]: 1230 nM and 1400 nM
